# Test results published in PubChem BioAssay (NCI).
#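 Each compound was tested at five concentrations against cells in 96-well plates for 48 hours. At the TGI there is no net growth.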 Where a SMILES comes first, the peptide text is derived from it. The star is where a group is joined. Ethyl(2-NMe3+) = C[N+](C)(C)CC*; Boc = CC(C)(C)OC(=O)*
# Columns and labels:
# Experiment in all cases: NCI tumour cell line growth inhibition, 48 h
# K-562 leukemia = system: K-562 leukemia
# LOX IMVI melanoma = system: LOX IMVI melanoma
# OVCAR-8 ovarian = system: OVCAR-8 ovarian
# MDA-MB-435 = system: MDA-MB-435
# HT29 colon = system: HT29 colon
# IGROV1 ovarian = system: IGROV1 ovarian
# SN12C renal = system: SN12C renal
# SNB-19 CNS = system: SNB-19 CNS
# U251 CNS = system: U251 CNS
# NCI-H460 lung = system: NCI-H460 lung
# A498 renal = system: A498 renal
# RXF 393 renal = system: RXF 393 renal
# SK-MEL-2 melanoma = system: SK-MEL-2 melanoma
# M14 melanoma = system: M14 melanoma
# NCI-H23 lung = system: NCI-H23 lung
# OVCAR-3 ovarian = system: OVCAR-3 ovarian
# HOP-62 NSCLC = system: HOP-62 NSCLC
# MDA-MB-231 breast = system: MDA-MB-231 breast
SMILES,TGI (K-562 leukemia) [µM],TGI (LOX IMVI melanoma) [µM],TGI (OVCAR-8 ovarian) [µM],TGI (MDA-MB-435) [µM],TGI (HT29 colon) [µM],TGI (IGROV1 ovarian) [µM],TGI (SN12C renal) [µM],TGI (SNB-19 CNS) [µM],TGI (U251 CNS) [µM],TGI (NCI-H460 lung) [µM],TGI (A498 renal) [µM],TGI (RXF 393 renal) [µM],TGI (SK-MEL-2 melanoma) [µM],TGI (M14 melanoma) [µM],TGI (NCI-H23 lung) [µM],TGI (OVCAR-3 ovarian) [µM],TGI (HOP-62 NSCLC) [µM],TGI (MDA-MB-231 breast) [µM]
Cc1ccc(C2SC(N)=Nc3c2c(C)nn3C(=O)c2ccccc2O)cc1 (configuration not stated),> 10,> 10,> 10,> 10,> 10,> 10,> 10,> 10,> 10,> 10,> 10,> 10,> 10,> 10,> 10,> 10,> 10,> 10
O=C(NNCc1ccco1)c1cc2ccccc2[nH]1,> 100,> 100,> 86.5,> 100,> 100,> 100,> 100,> 100,> 40.9,> 100,> 100,> 100,> 100,> 100,> 100,> 95,> 100,> 100
Nc1ccc(CCSSCCc2ccc(N)cc2)cc1,> 62.3,> 59.8,> 88.2,> 86.9,49.7,> 100,60.1,> 100,41.6,86.8,> 94.7,44.6,43.4,> 74.2,> 72.6,> 88.4,> 100,> 91.1
O=C1C=CC2(O)OCCN(CCO)C2=C1 (configuration not stated) (tested in a mixture with another compound),> 100,> 100,> 100,> 100,> 100,> 100,> 100,> 100,> 100,> 100,> 100,> 100,> 100,> 100,> 100,> 100,> 100,> 100
N#Cc1ccc(C(=O)/C=C/c2ccc(O)c(O)c2)cc1,34,26.3,> 54.8,28.5,31.2,27,28.9,29.3,26.2,29.8,31.9,32.4,33.8,32.8,33,29.3,32.4,30.7
C[N+]1(Cc2ccc(Cl)c(Cl)c2)CCCC1C1CCCN(Cc2ccc(Cl)c(Cl)c2)C1 (configuration not stated),> 100,> 100,> 100,> 100,> 100,> 100,> 100,> 100,> 100,> 100,> 100,> 100,> 100,> 100,> 100,> 100,> 100,> 100
Cc1ccc(/C=C2\CN(C)CC3C2=NN(c2ccccc2)C3c2ccc(C)cc2)cc1 (configuration not stated),> 100,> 100,> 100,> 100,> 100,> 100,> 100,> 100,> 100,> 100,> 100,> 100,> 100,> 100,> 100,> 100,> 100,> 100
COC(=O)C(Cc1ccc(Oc2cc(CC(NC(=O)c3ccccc3)C(=O)OC)ccc2OC)cc1)NC(=O)c1ccccc1 (configuration not stated),> 100,> 71.6,> 60.9,> 63.5,> 100,> 100,21.3,> 100,> 100,> 100,> 100,28.5,> 74,20.9,> 82.2,> 87.3,> 100,> 78.8
C=CCN1C(=O)/C(=C/c2ccc(C)cc2)NC1=S,> 100,> 100,> 100,> 100,> 100,> 100,> 100,> 100,> 100,> 100,> 100,> 100,> 100,> 100,> 100,> 100,> 100,> 100
CCOc1cc2c(cc1O)CC[C@@H]1[C@@H]2CC[C@]2(C)C(N)CC[C@@H]12 (some centres not stated),27.5,10.9,11.2,3.96,6.4,12.6,20.5,28.2,9.37,11.6,18.7,7.33,21.3,25.2,16.7,24.7,40.4,5.56
Nc1nc2n[nH]nc2c(=O)[nH]1,> 100,6.88,> 100,29,> 100,> 100,> 100,> 100,> 100,> 89.4,32.8,2.95,1.69,2.98,> 100,73.8,9.42,> 100
CN(C)CCCNc1c(C#N)[n+]([O-])c2cc(Cl)ccc2[n+]1[O-],20.8,56.9,> 51.3,> 67.2,> 40,10.5,53.3,> 100,> 66.6,13.2,> 52.4,> 100,36.4,37.6,23.5,> 34.9,> 48.7,37.2
CC(NC(=O)C(Cc1ccc(OCC[N+](C)(C)C)cc1)NC(=O)OC(C)(C)C)C(=O)NC(Cc1ccccc1)C(=O)NCC(N)=O (configuration not stated) (Boc-Y(Ethyl(2-NMe3+))AFG-NH2; configuration not given here),> 100,> 100,55.3,> 100,> 100,58.4,> 100,34.3,12.8,> 100,33.3,24,25.2,> 100,31.8,60.3,14.5,9.1
CC(C)(C)OC(=O)NC(CCC(=O)OCc1ccccc1)C(=O)NCCCO (configuration not stated),> 100,> 100,> 100,> 100,> 100,> 100,> 100,> 100,> 100,> 100,> 100,> 100,> 100,> 100,> 100,> 100,> 100,> 100
CC1=C(C(=O)N(C(C)C)C(C)C)CC(C(=O)N(C(C)C)C(C)C)=C(C)N1,> 100,> 100,> 100,> 100,> 100,> 100,> 100,> 100,> 100,> 100,> 100,> 100,> 100,> 100,> 100,> 100,> 100,> 100
Cc1ccc(C)n1-c1ccccc1C1C=CN(C(=O)OC(C)(C)C)C=C1,> 100,37.4,> 100,> 100,27.7,> 100,> 100,> 100,77.8,96.9,> 100,60.4,35.6,> 100,> 100,46.8,> 100,53.3
C#C[C@]1(O)CC[C@H]2[C@@H]3CCC4=C/C(=N/NC(=O)c5cccc6cc7ccccc7nc56)CC[C@@H]4[C@H]3CC[C@@]21CC,> 100,> 100,> 100,> 100,> 100,> 100,> 100,> 100,> 100,> 100,> 100,> 100,> 100,> 100,> 100,> 100,> 100,> 100
Cc1c(F)c(N)c2c(=O)cc(-c3ccc(N)c(F)c3)oc2c1F,> 92.9,55.8,58.7,> 100,98.6,25.2,56.7,46.4,33.1,24.2,8.74,41.6,81.2,> 100,68.4,> 100,46.8,46.3
O=C(Cc1ccc(Cl)cc1)Nc1ccc2oc(-c3ccccc3)nc2c1,> 100,> 100,> 100,> 100,> 100,> 100,> 100,> 100,> 100,> 100,> 100,> 100,> 100,> 100,> 100,> 100,> 100,> 100
OC1[C@H](O)CN(OCc2ccccc2)C[C@@H]1O (some centres not stated),> 100,> 100,> 100,> 100,> 100,> 100,> 100,> 100,> 100,> 100,> 100,> 100,> 100,> 100,> 100,> 100,> 100,> 100
CCCCN(Cc1ccccc1)C(=NC#N)N(Cc1ccccc1)Cc1ccccc1,> 100,35.1,> 100,59.3,85.2,> 89.5,> 80.5,> 100,81.4,> 100,> 100,63.8,37.6,47.4,> 74.5,28.9,75.3,51.7
O=P1(c2ccccc2)C(c2ccccc2)=CC=C1c1ccccc1,22.4,37.8,43.4,36.4,50.2,> 100,> 100,> 100,43.8,> 100,> 100,> 100,40.9,> 100,> 100,89.8,> 100,> 100
CC1(C)C/C(=N/O)c2c(nc3ccc4ccccc4c3c2-c2ccc(Cl)cc2)C1,65.6,26.6,25,> 100,33.5,31.6,22.7,> 100,24,19.7,39.6,39.4,> 100,> 100,46.7,24.7,92.2,24.4
CN1CCCOC(c2ccc([N+](=O)[O-])cc2)O1 (configuration not stated),> 100,> 100,> 100,> 100,> 100,> 100,> 100,> 100,> 100,> 100,> 100,> 100,> 100,> 100,> 100,> 100,> 100,> 100
